Laboratory results as given in patent publication US11690837B2, “Methods of improving cell-based therapy” (THE REGENTS OF THE UNIVERSITY OF CALIFORNIA, priority 2014, dated 2023).

Columns and labels:
sEH = target: T1, sEH (Homo sapiens, UniProt P34913); assay: Testing as sEH inhibitors (method not described); format: biochemical
T1 sequence (P34913 1-555): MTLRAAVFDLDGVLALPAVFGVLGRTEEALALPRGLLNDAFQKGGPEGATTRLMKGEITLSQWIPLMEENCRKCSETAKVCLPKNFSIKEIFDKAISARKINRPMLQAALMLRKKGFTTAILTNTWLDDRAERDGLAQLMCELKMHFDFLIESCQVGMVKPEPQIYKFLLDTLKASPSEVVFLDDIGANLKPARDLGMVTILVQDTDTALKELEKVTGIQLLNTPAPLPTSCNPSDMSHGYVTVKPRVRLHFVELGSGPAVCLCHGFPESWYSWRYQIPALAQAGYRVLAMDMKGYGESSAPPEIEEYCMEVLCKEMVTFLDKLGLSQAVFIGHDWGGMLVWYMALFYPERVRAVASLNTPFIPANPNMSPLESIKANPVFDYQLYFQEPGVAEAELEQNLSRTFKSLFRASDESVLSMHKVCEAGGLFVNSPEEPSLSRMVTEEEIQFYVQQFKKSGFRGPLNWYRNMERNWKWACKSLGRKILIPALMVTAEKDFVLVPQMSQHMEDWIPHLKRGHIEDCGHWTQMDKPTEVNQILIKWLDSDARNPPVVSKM
From the text: (§1) (Both the 1- and the 2-admamantyl ureas have been tested and have about the same high activity as an inhibitor of sEH. Thus, isomers of adamantyl dodecyl urea are preferred inhibitors. It is further expected that N, N′-dodecyl-cyclohexyl urea (DCU), and other inhibitors of sEH, and particularly dodecanoic acid ester derivatives of urea, are suitable for use in the methods. Preferred inhibitors include:
U.S. Pat. No. 5,955,496 (the '496 patent) also sets forth a number of sEH inhibitors which can be used in the methods. One category of these inhibitors comprises inhibitors that mimic the substrate for the enzyme. The lipid alkoxides (e.g., the 9-methoxide of stearic acid) are an exemplar of this group of inhibitors.

[1] = format: in vitro ADME
From the text: as §1, with “include: […]” for “include:”

For `CCCCCCCCCCCCNC(=O)NC12CC3CC(CC(C3)C1)C2` [ADU, N-Adamantyl-N′-dodecyl urea], the “activity as an inhibitor of sEH” value (sEH) was “particularly high activity” and the metabolic stability [1] was “metabolically stable”.
